{"source": "patent US20200206344A1", "about": "“METHODS FOR MODULATING THE INTERACTION BETWEEN EWS-FLI1 AND BAF COMPLEXES” (Dana-Farber Cancer Institute, Inc., priority 2017, published 2020)", "key": {"EWS-FLI1 [1]": {"test_system": "EWS-FLI1", "assay": "Biotinylated isoxazole-mediated precipitation", "type": "biochemical", "method": "(§1) These assays were performed as previously described (Kato et al., 2012) with slight modifications. Biotinylated isoxazole (b-isox, Sigma-Aldrich) was reconstituted in DMSO. Briefly, 5-10 million cells were resuspended in 1 mL lysis buffer (20 mM Tris-HCl pH 7.4, 150 mM NaCl, 5 mM MgCl2, 0.5% NP-40 and 10% glycerol supplemented with 1× Protease/Phosphatase inhibitors (Pierce), 0.1 mM PMSF and 20 mM betamercaptoethanol) and incubated for 30 minutes with rotation at +4° C. Protein supernatant was then collected after centrifugation for 15 min at 14000 rpm+4° C. A 5% whole cell extract (WCE) control was collected and the remaining proteins were divided into four aliquots before addition of biotinylated isoxazole at 0, 10, 30 100 uM final concentrations. 100 μg/mL RNase A (Life Technologies) was used for RNase treatment experiments. The Reaction solutions were incubated at +4° C. for 1 h with rotation and centrifuged for 15 min at 14000 rpm+4° C. Supernatant was saved for further analysis and pellets were washed twice in supplemented Lysis buffer before resuspension in Laemmli buffer. WCE, pellets and supernatants were analyzed by 4%-12% Tris-Glycine gradient gels (Life Technologies) and Western blotting was performed using standard protocols."}, "wild-type FLI1": {"biological_target": "T1, wild-type FLI1 (Homo sapiens, UniProt Q01543)", "T1 construct": "expressed in transfected cells; host or cells: U2OS osteosarcoma cells, lentiviral expression", "T1 sequence (Q01543 1-452)": "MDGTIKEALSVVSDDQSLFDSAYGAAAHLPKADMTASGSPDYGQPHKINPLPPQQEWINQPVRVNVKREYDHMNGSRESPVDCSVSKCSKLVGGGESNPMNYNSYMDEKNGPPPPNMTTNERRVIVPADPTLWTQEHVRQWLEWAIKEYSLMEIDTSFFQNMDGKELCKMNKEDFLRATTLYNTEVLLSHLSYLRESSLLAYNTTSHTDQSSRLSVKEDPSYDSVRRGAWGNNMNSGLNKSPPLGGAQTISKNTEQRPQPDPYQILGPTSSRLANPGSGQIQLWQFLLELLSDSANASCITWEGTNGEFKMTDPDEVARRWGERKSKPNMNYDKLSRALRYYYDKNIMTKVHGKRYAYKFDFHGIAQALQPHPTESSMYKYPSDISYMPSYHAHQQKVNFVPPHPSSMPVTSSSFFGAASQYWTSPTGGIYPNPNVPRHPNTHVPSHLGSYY", "assay": "Biotinylated isoxazole-mediated precipitation", "type": "biochemical", "settings": "U2OS osteosarcoma cell lysates", "method": "as §1"}, "[2]": {"biological_target": "mSWI/SNF (BAF) complexes (human)", "assay": "cell-based or functional assay"}, "EWS-FLI1 [3]": {"test_system": "EWS-FLI1", "assay": "BAF155 ChIP-seq after shRNA knockdown of EWS-FLI1", "type": "cell-based", "settings": "SK-N-MC cells, versus shGFP"}, "[4]": {"biological_target": "mSWI/SNF (BAF) complexes (human)", "assay": "partial urea denaturation of nuclear extracts before anti-EWSR1 immunoprecipitation, immunoblot"}, "EWS(YS37)-FLI1": {"biological_target": "T2, EWS(YS37)-FLI1 (human)", "T2 construct": "EWS-FLI1 with all 37 tyrosines of the prion-like domain changed to serine; also called EWS(Y37)-FLI1; EWS(YS37)-FLI1 mutant protein", "T2 chain": "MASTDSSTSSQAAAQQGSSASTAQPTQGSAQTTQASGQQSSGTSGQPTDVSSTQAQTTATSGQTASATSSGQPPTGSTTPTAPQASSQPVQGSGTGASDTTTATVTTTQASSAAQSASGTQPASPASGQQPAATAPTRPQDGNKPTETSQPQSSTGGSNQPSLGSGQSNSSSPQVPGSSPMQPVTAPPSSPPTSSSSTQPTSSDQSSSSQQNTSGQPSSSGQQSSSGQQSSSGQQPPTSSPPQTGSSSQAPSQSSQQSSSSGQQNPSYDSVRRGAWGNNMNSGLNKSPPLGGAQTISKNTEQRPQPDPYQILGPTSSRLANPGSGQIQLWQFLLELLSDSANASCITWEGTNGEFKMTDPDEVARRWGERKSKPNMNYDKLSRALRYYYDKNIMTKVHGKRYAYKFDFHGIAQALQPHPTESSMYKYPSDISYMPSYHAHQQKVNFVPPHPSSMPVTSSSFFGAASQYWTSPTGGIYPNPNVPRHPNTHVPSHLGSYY", "assay": "co-immunoprecipitation with anti-V5 antibodies, HEK-293-T cells co-expressing HA- and V5-tagged proteins"}}, "data": [{"molecule": "O=C1N[C@H]2[C@H](CS[C@H]2CCCCC(=O)OCCCCCCNC(=O)c2cc(-c3cccs3)on2)N1", "note": "[b-isox, biotinylated isoxazole]", "values": [{"measurement": "precipitation of EWS-FLI1", "setting": "EWS-FLI1 [1]; 100 uM b-isox, Ewing sarcoma cell lysates", "result": "precipitates"}, {"measurement": "precipitation of EWS-FLI1, dose dependence", "setting": "EWS-FLI1 [1]; Ewing sarcoma cell lysates, b-isox 0, 10, 30, 100 uM", "result": "dose-dependent"}, {"measurement": "precipitation of lentivirally expressed EWS-FLI1", "setting": "EWS-FLI1 [1]; U2OS osteosarcoma cell lysates", "result": "precipitates"}, {"measurement": "precipitation of lentivirally expressed wild-type FLI1", "setting": "wild-type FLI1", "result": "but not wild-type FLI1"}]}, {"molecule": "EWS-FLI1 fusion protein", "values": [{"measurement": "BAF155 ChIP-seq peak occupancy at EWS-FLI1-bound GGAA repeats, SK-N-MC cells", "setting": "[2]", "result": 2, "unit": "fold"}]}, {"molecule": "shEWS-FLI1: shRNA, target FLI1, position 1917, sequence CGTCATGTTCTGGTTTGAGAT", "values": [{"measurement": "BAF155 occupancy at EWS-FLI1 bound GGAA repeats", "setting": "EWS-FLI1 [3]", "result": "decreased specifically at GGAA repeat regions"}]}, {"molecule": "wild-type EWSR1 (from UniProt Q01844 1-656)", "values": [{"measurement": "urea concentration at which the interactions were decreased", "setting": "[4]", "result": 0.5, "unit": "M"}]}, {"molecule": "HA-tagged EWS(YS37)-FLI1 (other, not shown: small tags and cut ends, also called HA-tagged mutant EWS-FLI1) MASTDSSTSSQAAAQQGSSASTAQPTQGSAQTTQASGQQSSGTSGQPTDVSSTQAQTTATSGQTASATSSGQPPTGSTTPTAPQASSQPVQGSGTGASDTTTATVTTTQASSAAQSASGTQPASPASGQQPAATAPTRPQDGNKPTETSQPQSSTGGSNQPSLGSGQSNSSSPQVPGSSPMQPVTAPPSSPPTSSSSTQPTSSDQSSSSQQNTSGQPSSSGQQSSSGQQSSSGQQPPTSSPPQTGSSSQAPSQSSQQSSSSGQQNPSYDSVRRGAWGNNMNSGLNKSPPLGGAQTISKNTEQRPQPDPYQILGPTSSRLANPGSGQIQLWQFLLELLSDSANASCITWEGTNGEFKMTDPDEVARRWGERKSKPNMNYDKLSRALRYYYDKNIMTKVHGKRYAYKFDFHGIAQALQPHPTESSMYKYPSDISYMPSYHAHQQKVNFVPPHPSSMPVTSSSFFGAASQYWTSPTGGIYPNPNVPRHPNTHVPSHLGSYY", "values": [{"measurement": "binding result", "setting": "EWS(YS37)-FLI1", "result": "binds"}]}]}
